What was measured:
Experiment in all cases: radiometric filter-binding kinase assay
PRKCA (human) = PRKCA (human) (UniProt P17252); conditions: compound 10.0 µM; ATP 100 µM
CHEK1 (human) = CHEK1 (human) (UniProt O14757); conditions: compound 10.0 µM; ATP 100 µM
MAP2K1 (rabbit) = conditions: compound 10.0 µM; ATP 100 µM; accession and sequence are those of the human protein
MAPKAPK2 (human) = MAPKAPK2 (human) (UniProt P49137); conditions: compound 10.0 µM; ATP 100 µM
ROCK2 (rat) = conditions: compound 10.0 µM; ATP 100 µM; accession and sequence are those of the human protein
MAPK1 (mouse) = conditions: compound 10.0 µM; ATP 100 µM; accession and sequence are those of the human protein
[1] = tested on: SGK1 (human), O00141 [S422D]; conditions: compound 10.0 µM; ATP 100 µM
MAPK12 (human) = MAPK12 (human) (UniProt P53778); conditions: compound 10.0 µM; ATP 100 µM
PHKG1 or PHKG2 (rabbit) = conditions: compound 10.0 µM; ATP 100 µM; accession and sequence are those of the human protein
MAPK11 (human) = MAPK11 (human) (UniProt Q15759); conditions: compound 10.0 µM; ATP 100 µM
MAPKAPK5 (human) = MAPKAPK5 (human) (UniProt Q8IW41); conditions: ATP 100 µM; for residual activity: compound 10.0 µM
CSK (human) = CSK (human) (UniProt P41240); conditions: compound 10.0 µM; ATP 100 µM
MAPK14 (human) = MAPK14 (human) (UniProt Q16539); conditions: compound 10.0 µM; ATP 100 µM
DYRK1A (rat) = conditions: ATP 100 µM, accession and sequence are those of the human protein; for residual activity: compound 10.0 µM
AKT1 (human) = AKT1 (human) (UniProt P31749); conditions: compound 10.0 µM; ATP 100 µM
MAPK8 (human) = MAPK8 (human) (UniProt P45983); conditions: compound 10.0 µM; ATP 100 µM
RPS6KA5 KD1 KD2 (human) = RPS6KA5 KD1 KD2 (human) (UniProt O75582); conditions: compound 10.0 µM; ATP 100 µM
PRKG1 (human) = PRKG1 (human) (UniProt Q13976); conditions: compound 10.0 µM; ATP 100 µM
RPS6KA1 (rat) = conditions: compound 10.0 µM; ATP 100 µM; accession and sequence are those of the human protein
MAPK13 (human) = MAPK13 (human) (UniProt O15264); conditions: compound 10.0 µM; ATP 100 µM
PRKACA or PRKACB (cow) = conditions: compound 10.0 µM; accession and sequence are those of the human protein
PDPK1 (human) = PDPK1 (human) (UniProt O15530); conditions: compound 10.0 µM; ATP 100 µM
CSNK1A1 (rat) = conditions: compound 10.0 µM; ATP 100 µM; accession and sequence are those of the human protein
CDK2 CCNA2 (human) = CDK2 CCNA2 (human) (UniProt P24941+P20248); conditions: compound 10.0 µM; ATP 100 µM
PRKAA1 or PRKAA2 (rat) = conditions: compound 10.0 µM; ATP 100 µM; accession and sequence are those of the human protein
[2] = molecular target: CSNK2A1 or CSNK2A2 (human) (UniProt P19784+P68400); conditions: compound 10.0 µM; ATP 100 µM
GSK3B (human) = GSK3B (human) (UniProt P49841); conditions: compound 10.0 µM; ATP 100 µM
LCK (human) = LCK (human) (UniProt P06239); conditions: compound 10.0 µM; ATP 100 µM
[3] = tested on: RPS6KB1 (human), P23443 [T412E]; conditions: compound 10.0 µM; ATP 100 µM
RPS6KA1 (human) = RPS6KA1 (human) (UniProt Q15418); conditions: ATP 100 µM

Chain of CDK2 CCNA2 (human) (P20248 whole entry, looked up, other chains not shown): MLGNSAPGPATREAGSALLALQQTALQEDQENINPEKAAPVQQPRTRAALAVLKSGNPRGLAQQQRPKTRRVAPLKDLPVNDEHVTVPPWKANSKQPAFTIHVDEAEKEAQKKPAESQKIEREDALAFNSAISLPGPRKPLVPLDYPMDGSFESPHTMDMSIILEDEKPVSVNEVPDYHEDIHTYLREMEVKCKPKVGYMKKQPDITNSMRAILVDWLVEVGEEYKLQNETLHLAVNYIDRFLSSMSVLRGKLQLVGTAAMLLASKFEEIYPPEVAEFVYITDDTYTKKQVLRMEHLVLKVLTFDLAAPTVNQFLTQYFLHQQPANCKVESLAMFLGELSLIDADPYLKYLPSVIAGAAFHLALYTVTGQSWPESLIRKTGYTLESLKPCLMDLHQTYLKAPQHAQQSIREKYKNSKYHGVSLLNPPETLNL
Chain of PDPK1 (human) (O15530 whole entry, looked up): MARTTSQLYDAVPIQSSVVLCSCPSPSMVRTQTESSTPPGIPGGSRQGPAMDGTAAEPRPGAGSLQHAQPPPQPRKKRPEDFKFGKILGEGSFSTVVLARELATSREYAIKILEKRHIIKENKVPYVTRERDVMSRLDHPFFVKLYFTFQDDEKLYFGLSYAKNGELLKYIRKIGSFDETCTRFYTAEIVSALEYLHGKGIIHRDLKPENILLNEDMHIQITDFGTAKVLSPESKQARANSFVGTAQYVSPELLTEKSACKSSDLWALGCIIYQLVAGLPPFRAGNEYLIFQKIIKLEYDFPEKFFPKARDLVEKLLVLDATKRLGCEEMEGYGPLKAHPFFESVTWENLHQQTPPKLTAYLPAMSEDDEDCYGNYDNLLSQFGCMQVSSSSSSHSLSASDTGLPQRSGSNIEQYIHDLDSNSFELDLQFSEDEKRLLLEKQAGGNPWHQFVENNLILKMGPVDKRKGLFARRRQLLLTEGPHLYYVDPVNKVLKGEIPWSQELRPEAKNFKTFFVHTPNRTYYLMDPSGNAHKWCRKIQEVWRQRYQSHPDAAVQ
Chain of MAPKAPK2 (human) (P49137 whole entry, looked up): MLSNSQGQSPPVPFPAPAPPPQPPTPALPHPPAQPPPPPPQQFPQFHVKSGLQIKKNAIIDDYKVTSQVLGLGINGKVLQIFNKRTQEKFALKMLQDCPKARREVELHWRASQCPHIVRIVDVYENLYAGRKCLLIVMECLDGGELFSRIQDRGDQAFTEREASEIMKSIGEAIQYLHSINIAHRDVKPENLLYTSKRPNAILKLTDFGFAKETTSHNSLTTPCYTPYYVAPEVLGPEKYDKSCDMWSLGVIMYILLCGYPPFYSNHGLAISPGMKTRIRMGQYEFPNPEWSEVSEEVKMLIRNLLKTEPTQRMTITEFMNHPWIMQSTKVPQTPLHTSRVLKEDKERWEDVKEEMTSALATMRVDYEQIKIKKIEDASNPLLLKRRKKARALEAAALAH
Chain of AKT1 (human) (P31749 whole entry, looked up): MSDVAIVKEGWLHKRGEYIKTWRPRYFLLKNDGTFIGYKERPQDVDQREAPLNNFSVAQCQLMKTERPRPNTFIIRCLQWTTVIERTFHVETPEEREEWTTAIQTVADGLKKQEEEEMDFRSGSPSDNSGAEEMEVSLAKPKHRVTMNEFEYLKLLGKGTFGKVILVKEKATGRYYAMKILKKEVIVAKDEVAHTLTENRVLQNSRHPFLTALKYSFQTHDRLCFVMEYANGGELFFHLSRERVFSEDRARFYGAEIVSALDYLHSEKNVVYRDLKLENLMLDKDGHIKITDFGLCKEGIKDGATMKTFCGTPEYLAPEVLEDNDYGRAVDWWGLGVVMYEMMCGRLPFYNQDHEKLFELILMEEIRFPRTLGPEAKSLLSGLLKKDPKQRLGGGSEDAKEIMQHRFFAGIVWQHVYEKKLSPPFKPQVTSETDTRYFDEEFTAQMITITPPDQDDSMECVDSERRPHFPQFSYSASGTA
Chain of SGK1 (human), O00141 [S422D] (O00141 whole entry S422D, looked up): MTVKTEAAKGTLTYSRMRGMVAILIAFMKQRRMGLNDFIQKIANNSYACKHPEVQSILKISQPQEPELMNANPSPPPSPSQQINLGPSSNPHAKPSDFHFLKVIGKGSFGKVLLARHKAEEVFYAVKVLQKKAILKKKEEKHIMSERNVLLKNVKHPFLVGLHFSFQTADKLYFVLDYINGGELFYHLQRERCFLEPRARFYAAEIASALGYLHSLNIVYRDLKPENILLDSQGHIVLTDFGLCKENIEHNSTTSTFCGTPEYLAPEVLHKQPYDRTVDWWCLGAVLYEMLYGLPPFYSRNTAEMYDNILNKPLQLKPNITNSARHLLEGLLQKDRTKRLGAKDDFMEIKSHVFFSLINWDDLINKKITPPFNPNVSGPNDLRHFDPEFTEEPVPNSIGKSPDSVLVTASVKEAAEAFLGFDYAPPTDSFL
Chain of MAPK12 (human) (P53778 whole entry, looked up): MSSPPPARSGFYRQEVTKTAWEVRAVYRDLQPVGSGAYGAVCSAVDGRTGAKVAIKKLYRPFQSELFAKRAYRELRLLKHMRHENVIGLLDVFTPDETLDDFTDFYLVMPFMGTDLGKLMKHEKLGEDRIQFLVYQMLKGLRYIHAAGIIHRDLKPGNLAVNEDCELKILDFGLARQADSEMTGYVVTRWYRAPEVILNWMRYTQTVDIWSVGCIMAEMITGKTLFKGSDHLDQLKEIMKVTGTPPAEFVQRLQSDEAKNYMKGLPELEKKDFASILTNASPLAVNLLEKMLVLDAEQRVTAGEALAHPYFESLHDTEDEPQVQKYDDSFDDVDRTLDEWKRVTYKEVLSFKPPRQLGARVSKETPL
Chain of MAPKAPK5 (human) (Q8IW41 whole entry, looked up): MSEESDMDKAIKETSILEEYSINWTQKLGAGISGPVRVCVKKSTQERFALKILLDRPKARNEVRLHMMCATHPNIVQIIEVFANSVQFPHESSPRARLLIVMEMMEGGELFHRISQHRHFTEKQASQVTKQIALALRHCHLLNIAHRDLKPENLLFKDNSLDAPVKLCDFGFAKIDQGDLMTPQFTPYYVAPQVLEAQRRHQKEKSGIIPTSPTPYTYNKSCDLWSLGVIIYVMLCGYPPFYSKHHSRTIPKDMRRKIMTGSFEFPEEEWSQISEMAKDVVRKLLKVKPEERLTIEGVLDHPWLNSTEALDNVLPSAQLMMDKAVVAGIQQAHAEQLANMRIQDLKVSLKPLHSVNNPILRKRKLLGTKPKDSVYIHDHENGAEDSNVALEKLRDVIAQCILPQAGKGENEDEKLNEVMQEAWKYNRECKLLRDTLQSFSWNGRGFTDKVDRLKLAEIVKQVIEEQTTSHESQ
Chain of RPS6KB1 (human), P23443 [T412E] (P23443 whole entry T412E, looked up): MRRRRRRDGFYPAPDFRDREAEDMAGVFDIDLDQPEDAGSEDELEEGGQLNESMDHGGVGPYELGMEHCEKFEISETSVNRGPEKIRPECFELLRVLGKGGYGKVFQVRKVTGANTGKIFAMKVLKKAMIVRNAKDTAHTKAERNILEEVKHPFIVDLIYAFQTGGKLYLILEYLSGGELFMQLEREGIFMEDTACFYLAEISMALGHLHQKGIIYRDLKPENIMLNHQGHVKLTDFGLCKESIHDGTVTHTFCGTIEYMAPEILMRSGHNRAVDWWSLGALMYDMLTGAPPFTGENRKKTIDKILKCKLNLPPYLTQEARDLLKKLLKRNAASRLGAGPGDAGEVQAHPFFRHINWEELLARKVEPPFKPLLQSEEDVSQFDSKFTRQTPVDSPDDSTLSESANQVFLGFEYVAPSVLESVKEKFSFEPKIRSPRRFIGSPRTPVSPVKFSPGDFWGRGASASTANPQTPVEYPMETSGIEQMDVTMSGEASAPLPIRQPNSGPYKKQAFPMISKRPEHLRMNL
Chain of MAPK14 (human) (Q16539 whole entry, looked up): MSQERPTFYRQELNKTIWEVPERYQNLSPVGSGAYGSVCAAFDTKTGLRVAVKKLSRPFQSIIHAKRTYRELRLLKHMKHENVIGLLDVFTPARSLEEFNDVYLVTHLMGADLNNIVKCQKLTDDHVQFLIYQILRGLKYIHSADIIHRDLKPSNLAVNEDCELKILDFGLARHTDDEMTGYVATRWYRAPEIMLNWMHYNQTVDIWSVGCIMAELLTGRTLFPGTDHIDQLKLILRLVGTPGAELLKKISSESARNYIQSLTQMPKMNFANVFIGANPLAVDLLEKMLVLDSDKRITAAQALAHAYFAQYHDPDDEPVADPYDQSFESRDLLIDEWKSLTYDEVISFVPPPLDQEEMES
Chain of MAPK8 (human) (P45983 whole entry, looked up): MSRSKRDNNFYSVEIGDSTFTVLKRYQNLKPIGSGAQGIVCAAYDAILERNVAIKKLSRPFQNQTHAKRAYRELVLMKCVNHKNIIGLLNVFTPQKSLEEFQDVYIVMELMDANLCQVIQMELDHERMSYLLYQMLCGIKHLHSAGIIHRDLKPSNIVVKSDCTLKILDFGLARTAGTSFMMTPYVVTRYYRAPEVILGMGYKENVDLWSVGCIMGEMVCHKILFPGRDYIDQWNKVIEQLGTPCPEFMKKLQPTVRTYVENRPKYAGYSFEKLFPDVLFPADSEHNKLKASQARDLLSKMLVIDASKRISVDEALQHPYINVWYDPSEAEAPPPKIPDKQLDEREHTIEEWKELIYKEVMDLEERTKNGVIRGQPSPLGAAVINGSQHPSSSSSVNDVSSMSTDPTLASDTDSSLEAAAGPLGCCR
Chain of CSK (human) (P41240 whole entry, looked up): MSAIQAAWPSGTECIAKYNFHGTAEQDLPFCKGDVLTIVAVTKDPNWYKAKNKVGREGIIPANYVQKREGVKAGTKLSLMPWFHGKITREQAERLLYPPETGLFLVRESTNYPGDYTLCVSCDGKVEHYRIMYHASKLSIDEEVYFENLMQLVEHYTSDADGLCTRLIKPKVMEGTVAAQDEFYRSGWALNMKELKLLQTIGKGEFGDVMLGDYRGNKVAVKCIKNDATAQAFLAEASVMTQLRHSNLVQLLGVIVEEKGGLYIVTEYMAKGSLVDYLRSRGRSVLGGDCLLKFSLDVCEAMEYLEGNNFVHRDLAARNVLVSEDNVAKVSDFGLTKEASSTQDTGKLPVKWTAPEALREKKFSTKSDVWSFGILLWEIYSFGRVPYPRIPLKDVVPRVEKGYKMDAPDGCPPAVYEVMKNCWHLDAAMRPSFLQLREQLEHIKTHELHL

Compound	residual activity (CHEK1 (human))	residual activity (MAP2K1 (rabbit))	residual activity (MAPKAPK2 (human))	residual activity (ROCK2 (rat))	residual activity (MAPK1 (mouse))	residual activity [1]	residual activity (MAPK12 (human))	residual activity (PHKG1 or PHKG2 (rabbit))	residual activity (MAPK11 (human))	residual activity (MAPKAPK5 (human))	residual activity (CSK (human))	residual activity (MAPK14 (human))	residual activity (DYRK1A (rat))	residual activity (AKT1 (human))	residual activity (MAPK8 (human))	residual activity (RPS6KA5 KD1 KD2 (human))	residual activity (RPS6KA1 (rat))	residual activity (MAPK13 (human))	residual activity (PRKACA or PRKACB (cow))	residual activity (PDPK1 (human))	other results
COC(=O)[C@@]1(OC)C[C@@H]2O[C@]1(C)n1c3ccccc3c3c4c(c5c6ccccc6n2c5c31)C(=O)N(C)C4	93%	99%	71%	97%	106%	72%	103%	99%	100%	83%	93%	102%	112%	83%	99%	74%	105%	105%	102%	114%	residual activity (PRKCA (human)): 102%; residual activity (PRKG1 (human)): 109%; residual activity (CSNK1A1 (rat)): 83%; residual activity (CDK2 CCNA2 (human)): 94%; residual activity (PRKAA1 or PRKAA2 (rat)): 90%; residual activity [2]: 98%; residual activity (GSK3B (human)): 52%; residual activity (LCK (human)): 94%; residual activity [3]: 90%
O=C(O[C@@H]1Cc2c(O)cc(O)cc2O[C@@H]1c1cc(O)c(O)c(O)c1)c1cc(O)c(O)c(O)c1	79%	94%	79%	53%	53%	104%	85%	78%	87%	10%	76%	105%	9%	87%	76%	88%	109%	60%	109%	50%	residual activity (PRKCA (human)): 76%; IC50 (MAPKAPK5 (human)): 1000 nM; IC50 (DYRK1A (rat)): 330 nM; residual activity (CSNK1A1 (rat)): 105%; residual activity (CDK2 CCNA2 (human)): 97%; residual activity (PRKAA1 or PRKAA2 (rat)): 101%; residual activity [2]: 105%; residual activity (GSK3B (human)): 78%; residual activity (LCK (human)): 89%; residual activity [3]: 87%
CC(C)[C@H](CO)Nc1nc(Nc2cccc(Cl)c2)c2ncn(C(C)C)c2n1	78%	80%	97%	57%	26%	91%	105%	36%	117%	76%	20%	101%	6%	88%	84%	88%	15%	98%	82%	103%	IC50 (DYRK1A (rat)): 300 nM; IC50 (RPS6KA1 (human)): 1490 nM; residual activity (CSNK1A1 (rat)): 75%; residual activity (CDK2 CCNA2 (human)): 2%; residual activity (PRKAA1 or PRKAA2 (rat)): 59%; residual activity [2]: 95%; residual activity (GSK3B (human)): 84%; residual activity (LCK (human)): 22%; residual activity [3]: 79%

Source: the kinase profiling compilation of Christmann-Franck et al. (2016)
